One may read the EC50 as the concentration at which the effect is half-maximal. What is called IC50 is the midpoint of a concentration-inhibition curve. Low values mean greater potency, high ones weaker potency.

Here are results for one molecule from patent US20260124240A1, “DRUG RESISTANT IMMUNE CELLS” (The Regents of the University of California, priority 2022, published 2026).

Data set [1] has as its system Homozygous BCL2 G101V iPSC-derived NK cells (1F6). Nature of the data set: Venetoclax dose response / cell survival assay on homozygous BCL2 G101V (1F6) iPSC-derived NK cells. The format is cell-based. As to conditions: Homo sapiens; homozygous BCL2G101V/G101V (1F6) NK cells; viability at 72 hours post treatment; read-out: EC50 where 50% of the NK cells are killed by venetoclax. How it is done: (§1) FIGS. 12A-12H: BCL2 G101V iPSC-derived NK cells are resistant to venetoclax and anti-apoptotic BCL2 family member levels are unchanged. Dose response curves for WT iPSC-derived NK (FIG. 12A), Homozygous BCL2 G101V iPSC-derived NK cells (FIG. 12B), and Heterozygous BCL2 G101V iPSC-derived NK cells (FIG. 12C) treated with Venetoclax and assessed for viability at 72 hours post treatment. FIG. 12D. Dose response for WT iPSC-derived NK and homozygous BCL2 G101V iPSC-derived NK cells treated with dexamethasone and assessed for viability at 72 hours post treatment. […] real-time PCR analysis of BCL2 (FIG. 12E), BCL-XL (FIG. 12F), and MCL1 (FIG. 12G) mRNA level for WT iPSC-derived NK and BCL2 G101V iPSC-derived NK cells vehicle or venetoclax treated. FIG. 12H. Immunoblots for BCL2, and BCL-XL protein levels with a β-actin loading control.
(§2) Resistance to venetoclax of the heterozygous and homozygous BCL2 G101V iPSC-derived NK cells was tested in cell survival assays.

For data set [2], the system named is luciferase-expressing, venetoclax-resistant MOLM-13 cells. Nature of the data set: Mouse xenograft study (MOLM13 AML). The note with it: NSG mice, 1×10^7 NK cells IV, venetoclax 50 mg/kg daily for 21 days where given. The format is in vivo. How it is done:
FIG. 15: A schema of NK cell dosing regimen and venetoclax treatment plan. NSG mice were inoculated IV with 2.5×10^5 luciferase-expressing MOLM13 cells, and tumor engraftment was assessed by IVIS imaging 4 days later for baseline pre-treatment grouping. On day 4 after tumor inoculation, mice were either left untreated or treated with 1×10^7 WT iPSC-derived NK cells or BCL2 G101V iPSC-derived NK cells alone or in combination with venetoclax for 21 days. NK cells were supported by injection of IL-15 for the first week and IL-2 for three weeks with IVIS imaging done as indicated to monitor tumor progression.
Eight-week-old NOD/SCID/γc−/− (NSG) mice (Jackson Laboratories, n=5 per group) were used for in vivo experiments. Mice received 2.5×10^5 luciferase-expressing MOLM13 tumor cells intravenously. Mice were sub-lethally irradiated (225 cGy) 4 days after tumor engraftment. 107 NK cells/mouse were injected IV on the day of irradiation. NK cells were supported by the injection of IL-2 and IL-15 as reported previously 27, 28. […] Tumor burden was determined by BLI using the Xenogen IVIS Imaging system. […]
To evaluate the anti-tumor activity of BCL2G101V/G101V NK cells in vivo, BCL2G101V/G101V iPSC-derived NK cell killing of MOLM13 AML cells was assessed in a mouse xenograft tumor model. […] Tumor growth was monitored by bioluminescent imaging (BLI) (FIG. 16A).

The conditions of data set [3]: dose of 400 mg/day; cited from earlier work.
Data set [4] deals with Heterozygous BCL2 G101V iPSC-derived NK cells (BCL2G101V/WT). Nature of the data set: Venetoclax dose response / cell survival assay on heterozygous BCL2 G101V iPSC-derived NK cells. As to conditions: Homo sapiens, viability at 72 hours post treatment. The format is cell-based. On the procedure:
as §1, §2

The subject of data set [5] is venetoclax-resistant MOLM13 cells. Nature of the data set: Venetoclax sensitivity of venetoclax-resistant MOLM13 cells. The format is cell-based. How it is done: The MOLM13 cells lines were cultured continuously in increasing concentrations of venetoclax over 6 weeks to generate and select for venetoclax-resistant cells. The resulting cells could be maintained in 3 μM venetoclax without toxicity. The resistant cells were cultured continuously in the presence of venetoclax.
(§3) For longer-term assays to examine the ability of BCL2G101V/G101V iPSC-derived NK cells to mediate effective killing of venetoclax-resistant AML cells, MOLM13 cells that are venetoclax-resistant were generated.

The subject of data set [6] is WT MOLM13 cells. Nature of the data set: Venetoclax sensitivity of WT MOLM13 cells. The format is cell-based. The note with it: Homo sapiens, MOLM-13.
Source text: as §3

Data set [7] concerns WT iPSC-derived NK cells (BCL2WT/WT). Nature of the data set: Venetoclax dose response / cell survival assay on WT iPSC-derived NK cells. The format is cell-based, human. On the procedure:
as §1, §2

On to `CC1(C)CCC(CN2CCN(c3ccc(C(=O)NS(=O)(=O)c4ccc(NCC5CCOCC5)c([N+](=O)[O-])c4)c(Oc4cnc5[nH]ccc5c4)c3)CC2)=C(c2ccc(Cl)cc2)C1` [venetoclax], for which the EC50 in data set [1] stood at 6020 nM; in data set [4], 3550 nM; in data set [7] (Homo sapiens, WT iPSC-derived NK cells, viability at 72 hours post treatment, read-out: EC50 where 50% of the NK cells are killed by venetoclax), 63.7 nM. The median survival in data set [2] is given as 18.8 days. For the same molecule, the serum concentration in data set [3] is 2300 nM. Besides, the “increased resistance to venetoclax compared to WT MOLM13 cells” value in data set [5] (venetoclax-resistant MOLM13) is recorded as “over 100 fold”. In data set [5] (venetoclax-resistant MOLM13, selected over 6 weeks), the “venetoclax concentration in which resistant cells could be maintained without toxicity” value is 3 µM. In data set [6], this molecule returned a half-maximal inhibitory concentration (IC50) of 24 nM. Moreover, the “toxicity to unengineered NK cells” value in data set [7] (at serum concentration of 2.3 μmol/L) is on record as “toxic”.
